# Columns and labels:
# [1] = Retention time of the compound; assay type: physicochemical
# Histone deacetylase 1 [2] = biological target: T1, Histone deacetylase 1 (Homo sapiens, UniProt Q13547); assay: Inhibition of recombinant human HDAC1
# [3] = biological target: T2, Protein deacetylase HDAC6 (Homo sapiens, UniProt Q9UBN7); assay: Inhibition of recombinant human HDAC6
# T2 sequence (Q9UBN7 whole entry): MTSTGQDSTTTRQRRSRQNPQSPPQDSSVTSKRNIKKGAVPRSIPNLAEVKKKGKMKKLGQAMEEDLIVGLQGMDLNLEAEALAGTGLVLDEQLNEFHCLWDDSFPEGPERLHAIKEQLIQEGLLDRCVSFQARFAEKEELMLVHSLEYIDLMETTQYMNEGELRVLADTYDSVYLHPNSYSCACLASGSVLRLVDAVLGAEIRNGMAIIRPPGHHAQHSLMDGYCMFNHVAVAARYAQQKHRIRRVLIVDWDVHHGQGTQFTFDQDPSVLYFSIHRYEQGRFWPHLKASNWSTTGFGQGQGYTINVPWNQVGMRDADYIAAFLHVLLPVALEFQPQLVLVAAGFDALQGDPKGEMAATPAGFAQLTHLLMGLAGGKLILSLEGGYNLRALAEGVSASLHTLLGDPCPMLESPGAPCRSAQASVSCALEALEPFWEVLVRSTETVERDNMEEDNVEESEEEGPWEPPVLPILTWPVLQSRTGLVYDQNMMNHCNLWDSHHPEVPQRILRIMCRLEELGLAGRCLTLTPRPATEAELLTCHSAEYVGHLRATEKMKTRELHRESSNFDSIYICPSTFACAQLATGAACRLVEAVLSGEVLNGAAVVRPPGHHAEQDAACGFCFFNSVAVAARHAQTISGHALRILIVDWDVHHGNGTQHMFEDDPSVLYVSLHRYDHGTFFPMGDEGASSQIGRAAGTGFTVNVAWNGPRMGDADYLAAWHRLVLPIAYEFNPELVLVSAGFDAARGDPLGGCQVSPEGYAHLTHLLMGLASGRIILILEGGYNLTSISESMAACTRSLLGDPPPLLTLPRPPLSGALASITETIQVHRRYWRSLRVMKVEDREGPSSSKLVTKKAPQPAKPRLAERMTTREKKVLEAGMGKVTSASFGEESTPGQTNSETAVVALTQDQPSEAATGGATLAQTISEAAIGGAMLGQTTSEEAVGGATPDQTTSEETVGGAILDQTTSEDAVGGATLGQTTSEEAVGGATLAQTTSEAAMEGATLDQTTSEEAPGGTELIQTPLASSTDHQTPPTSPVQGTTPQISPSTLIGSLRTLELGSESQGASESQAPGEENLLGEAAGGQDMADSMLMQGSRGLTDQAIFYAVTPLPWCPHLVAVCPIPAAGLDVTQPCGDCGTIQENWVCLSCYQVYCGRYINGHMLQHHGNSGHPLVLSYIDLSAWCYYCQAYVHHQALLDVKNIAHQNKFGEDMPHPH
# Histone deacetylase = assay: Inhibition of HDAC in human HeLa nuclear extract; assay type: protein assay
# Histone deacetylase 8 = biological target: T3, Histone deacetylase 8 (Homo sapiens, UniProt Q9BY41); assay: Inhibition of HDAC8 (unknown origin)
# T3 sequence (Q9BY41 whole entry): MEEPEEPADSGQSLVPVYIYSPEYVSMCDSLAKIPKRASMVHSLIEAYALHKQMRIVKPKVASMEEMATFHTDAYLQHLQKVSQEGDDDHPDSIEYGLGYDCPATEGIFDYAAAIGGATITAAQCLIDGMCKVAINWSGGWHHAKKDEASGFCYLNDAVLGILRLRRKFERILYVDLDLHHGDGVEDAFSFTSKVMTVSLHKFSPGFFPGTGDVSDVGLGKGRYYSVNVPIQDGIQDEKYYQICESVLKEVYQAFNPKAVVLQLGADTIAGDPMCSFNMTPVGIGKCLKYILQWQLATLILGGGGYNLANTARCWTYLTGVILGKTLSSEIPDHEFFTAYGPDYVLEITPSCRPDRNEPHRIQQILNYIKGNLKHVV
# Histone deacetylase 2 = Histone deacetylase 2 (Homo sapiens, UniProt Q92769); assay: Inhibition of HDAC2 (unknown origin)
# Sequence of Histone deacetylase 2 (Q92769 whole entry): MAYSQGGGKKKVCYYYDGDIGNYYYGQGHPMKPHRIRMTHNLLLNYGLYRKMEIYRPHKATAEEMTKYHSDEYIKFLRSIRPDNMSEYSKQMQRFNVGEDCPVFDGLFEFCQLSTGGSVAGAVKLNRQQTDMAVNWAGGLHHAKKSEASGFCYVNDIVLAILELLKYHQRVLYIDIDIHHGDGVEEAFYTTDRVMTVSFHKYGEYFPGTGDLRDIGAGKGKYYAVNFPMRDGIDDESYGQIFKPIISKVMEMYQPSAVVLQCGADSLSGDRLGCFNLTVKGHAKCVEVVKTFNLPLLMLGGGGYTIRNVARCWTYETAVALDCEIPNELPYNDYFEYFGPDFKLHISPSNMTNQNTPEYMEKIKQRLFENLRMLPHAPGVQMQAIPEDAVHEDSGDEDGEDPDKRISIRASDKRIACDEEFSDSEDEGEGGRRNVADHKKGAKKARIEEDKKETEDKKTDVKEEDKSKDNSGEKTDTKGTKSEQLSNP
# Histone deacetylase 3 = Histone deacetylase 3 (Homo sapiens, UniProt O15379); assay: Inhibition of HDAC3 (unknown origin)
# Sequence of Histone deacetylase 3 (O15379 whole entry): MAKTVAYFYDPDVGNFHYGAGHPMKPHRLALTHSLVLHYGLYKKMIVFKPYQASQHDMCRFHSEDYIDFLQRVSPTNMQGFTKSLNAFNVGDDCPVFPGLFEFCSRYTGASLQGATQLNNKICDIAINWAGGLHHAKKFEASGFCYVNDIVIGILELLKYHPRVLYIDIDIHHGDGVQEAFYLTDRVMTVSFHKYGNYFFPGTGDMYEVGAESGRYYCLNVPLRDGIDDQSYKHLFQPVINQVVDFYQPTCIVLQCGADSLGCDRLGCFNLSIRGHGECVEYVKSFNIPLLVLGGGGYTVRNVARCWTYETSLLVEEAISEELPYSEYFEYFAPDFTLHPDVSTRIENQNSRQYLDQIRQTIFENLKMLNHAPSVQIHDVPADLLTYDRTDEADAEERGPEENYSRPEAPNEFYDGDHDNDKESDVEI
# Histone deacetylase 4 = Histone deacetylase 4 (Homo sapiens, UniProt P56524); assay: Inhibition of HDAC4 (unknown origin)
# Sequence of Histone deacetylase 4 (P56524 whole entry): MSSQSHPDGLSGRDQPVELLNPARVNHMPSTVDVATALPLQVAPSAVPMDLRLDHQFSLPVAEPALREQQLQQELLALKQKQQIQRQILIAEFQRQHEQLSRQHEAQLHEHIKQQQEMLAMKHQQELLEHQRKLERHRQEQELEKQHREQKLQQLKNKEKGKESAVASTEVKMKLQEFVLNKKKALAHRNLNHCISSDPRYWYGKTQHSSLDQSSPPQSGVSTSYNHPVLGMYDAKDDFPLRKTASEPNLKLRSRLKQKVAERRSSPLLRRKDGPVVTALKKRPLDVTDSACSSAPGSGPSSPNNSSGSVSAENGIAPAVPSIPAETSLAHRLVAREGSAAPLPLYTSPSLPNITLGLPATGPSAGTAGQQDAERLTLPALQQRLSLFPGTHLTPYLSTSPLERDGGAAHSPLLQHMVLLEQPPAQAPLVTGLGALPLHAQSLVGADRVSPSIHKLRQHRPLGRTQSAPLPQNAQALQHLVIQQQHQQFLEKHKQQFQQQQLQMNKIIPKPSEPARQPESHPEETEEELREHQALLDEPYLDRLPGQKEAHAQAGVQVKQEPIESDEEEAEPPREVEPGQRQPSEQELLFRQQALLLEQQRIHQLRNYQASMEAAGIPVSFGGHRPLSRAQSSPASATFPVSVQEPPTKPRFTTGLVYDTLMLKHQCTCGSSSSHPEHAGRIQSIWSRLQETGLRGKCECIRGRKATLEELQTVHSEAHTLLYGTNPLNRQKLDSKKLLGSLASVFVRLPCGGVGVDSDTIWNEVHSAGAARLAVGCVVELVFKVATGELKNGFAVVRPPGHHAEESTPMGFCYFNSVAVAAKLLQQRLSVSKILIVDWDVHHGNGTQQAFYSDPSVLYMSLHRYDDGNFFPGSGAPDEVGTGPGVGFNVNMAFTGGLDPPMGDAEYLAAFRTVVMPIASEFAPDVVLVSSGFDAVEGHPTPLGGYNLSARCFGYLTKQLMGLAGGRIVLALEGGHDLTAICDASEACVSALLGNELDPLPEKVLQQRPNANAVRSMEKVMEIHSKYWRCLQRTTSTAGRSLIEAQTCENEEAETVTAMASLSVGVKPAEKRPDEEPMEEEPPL
# [4] = biological target: T2, Protein deacetylase HDAC6; assay: Inhibition of HDAC6 (unknown origin)
# Histone deacetylase 1 [5] = biological target: T1, Histone deacetylase 1; assay: Inhibition of HDAC1 (unknown origin)
# T1 sequence (Q13547 whole entry): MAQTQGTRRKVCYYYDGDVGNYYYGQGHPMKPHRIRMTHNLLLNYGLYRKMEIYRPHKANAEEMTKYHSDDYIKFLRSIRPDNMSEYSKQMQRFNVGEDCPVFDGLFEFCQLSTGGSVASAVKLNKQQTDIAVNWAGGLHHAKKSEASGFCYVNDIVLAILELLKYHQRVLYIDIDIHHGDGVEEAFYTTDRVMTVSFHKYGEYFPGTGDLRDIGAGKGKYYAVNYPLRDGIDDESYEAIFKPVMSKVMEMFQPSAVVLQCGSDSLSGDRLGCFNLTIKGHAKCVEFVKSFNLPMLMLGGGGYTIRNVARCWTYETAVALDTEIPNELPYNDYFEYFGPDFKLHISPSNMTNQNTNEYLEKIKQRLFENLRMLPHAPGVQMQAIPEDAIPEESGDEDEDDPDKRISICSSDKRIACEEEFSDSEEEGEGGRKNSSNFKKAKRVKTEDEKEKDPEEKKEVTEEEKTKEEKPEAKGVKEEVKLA
SMILES,Retention_time [1],IC50 (Histone deacetylase 1 [2]),IC50 [3],IC50 (Histone deacetylase),IC50 (Histone deacetylase 8),IC50 (Histone deacetylase 2),IC50 (Histone deacetylase 3),IC50 (Histone deacetylase 4),IC50 [4],IC50 (Histone deacetylase 1 [5])
O=C(NCCS)c1cc(-c2ccc(F)cc2)on1,2.91 min,> 10 µM,6.5 µM,> 10 µM,,,,,,
CCCn1nc(-c2ccc(F)cc2)cc1C(=O)NCCCCCCS,6.96 min,> 10 µM,> 10 µM,> 10 µM,,,,,,
CC(=O)SCCCCCCNC(=O)c1cc(-c2ccc(F)cc2)nn1C,,,,,4.2 µM,0.14 µM,0.068 µM,10 µM,10 µM,0.021 µM
O=C(CCS)NCCCNC(=O)c1cc(-c2ccc(F)cc2)[nH]n1,2.66 min,> 10 µM,> 10 µM,> 10 µM,,,,,,
O=C(NCCCCCCS)c1cc(-c2ccc(F)cc2)nn1Cc1ccccc1,7.52 min,> 10 µM,> 10 µM,> 10 µM,,,,,,
CCn1nc(C(=O)NCCCCCCS)cc1-c1ccc(F)cc1,4.29 min,> 10 µM,> 10 µM,> 10 µM,,,,,,
Cn1nc(-c2ccc(F)cc2)cc1C(=O)NCCCCCCS,5.16 min,> 10 µM,2.9 µM,3.2 µM,,,,,,
O=C(CS)NCCCCNC(=O)c1cc(-c2ccc(F)cc2)[nH]n1,2.94 min,> 10 µM,2.1 µM,8.6 µM,,,,,,
Cn1nc(C(=O)NCCCCCCS)cc1-c1ccc(F)cc1,3.86 min,> 10 µM,6.9 µM,> 10 µM,,,,,,
CCCn1nc(C(=O)NCCCCCCS)cc1-c1ccc(F)cc1,5.2 min,> 10 µM,> 10 µM,> 10 µM,,,,,,
CCCCn1nc(-c2ccc(F)cc2)cc1C(=O)NCCCCCCS,11.92 min,> 10 µM,> 10 µM,> 10 µM,,,,,,

# Further lines, results first:
Retention_time [1],IC50 (Histone deacetylase 1 [2]),IC50 [3],IC50 (Histone deacetylase),IC50 (Histone deacetylase 8),IC50 (Histone deacetylase 2),IC50 (Histone deacetylase 3),IC50 (Histone deacetylase 4),IC50 [4],IC50 (Histone deacetylase 1 [5]),SMILES
6.79 min,> 10 µM,> 10 µM,> 10 µM,,,,,,,CCCCn1nc(C(=O)NCCCCCCS)cc1-c1ccc(F)cc1
7.17 min,> 10 µM,7.4 µM,> 10 µM,,,,,,,CC(C)n1nc(-c2ccc(F)cc2)cc1C(=O)NCCCCCCS
5.49 min,> 10 µM,> 10 µM,> 10 µM,,,,,,,O=C(NCCCCCCS)c1cc(-c2ccc(F)cc2)n(Cc2ccccc2)n1
2.85 min,2.2 µM,1.1 µM,1.9 µM,,,,,,,O=C(NCCCCCS)c1cc(-c2ccc(F)cc2)[nH]n1
3.13 min,3.3 µM,1.4 µM,2.1 µM,,,,,,,O=C(NCCCCCCS)c1cc(-c2ccc(F)cc2)n(CCO)n1
5.67 min,0.85 µM,0.88 µM,0.98 µM,,,,,,,O=C(NCCCCCCS)c1cc(-c2ccc(F)cc2)on1
3.25 min,1.4 µM,0.88 µM,1.5 µM,,,,,,,O=C(CS)NCCCNC(=O)c1cc(-c2ccc(F)cc2)[nH]n1
13.54 min,0.13 µM,0.09 µM,0.08 µM,,,,,,,O=C(O)CCCn1nc(-c2ccc(F)cc2)cc1C(=O)NCCCCCCS
3.15 min,0.44 µM,0.22 µM,0.54 µM,,,,,,,O=C(NCCCCCCS)c1cc(-c2ccc(F)cc2)n(CCCCO)n1
6.9 min,1.8 µM,0.45 µM,0.81 µM,,,,,,,O=C(O)CCCn1nc(C(=O)NCCCCCCS)cc1-c1ccc(F)cc1

# — ChEMBL document CHEMBL3758139, “Novel thiol-based histone deacetylase inhibitors bearing 3-phenyl-1H-pyrazole-5-carboxamide scaffold as surface recognition motif: Design, synthesis and SAR study” (Bioorg Med Chem Lett, 2016)
